Source: patent US20250320228A1, “PYRIDO[3,2-D]PYRIMIDINES AS HPK1 INHIBITORS” (Merck Patent GmbH, priority 2022, published 2025)
Like-named read-outs stand apart in the source and are kept apart here.

Key:
HPK1 pSLP76 (Ser376) = assay: Cellular assay phospho-SLP-76 (Ser376); format: cell-based, human; conditions: read-out: HPK1 pSLP76 IC50
Description: Cellular Assay—Phospho-SLP-76 (Ser376).
Inhibition of HPK1 enzymatic activity in cells was determined by detection of SLP76 phosphorylation at Ser376 residue in lysate from Jurkat (human) and EL-4 (mouse) cells. Jurkat and EL-4 cells express both HPK1 and SLP76 naturally. All cells were cultured in RPMI 1640 media containing 10% heat inactivated fetal bovine serum (FBS) and 1× Penicillin-Streptomycin. In either Jurkat or El-4 assay, cells were pre-incubated with test compounds prior to T cell stimulation by respective αCD3/αCD28 Dynabeads™. For detection, plates were read on the Envision and percent inhibition and IC50 were determined by Smart fit in Genedata Analyzer.
For Jurkat cells: 35 μL cell suspension were dispensed at a density of 30,000 cells/well in 384-well plates containing HBSS (Gibco, 14025076)+0.1% BSA). 10-point logarithmic serial dilution of test compounds in DMSO were prepared by a Hamilton automated liquid handling robot and 35 nL was transferred into each well by an Echo liquid handler. After 60 min. pre-incubation, the cells were stimulated by adding 5 μL human T activator αCD3/αCD28 Dynabeads™ (Gibco, 11132D) at 1.2×107 beads/ml for 15 minutes at 37° C. Detection of Ser376 phosphorylation status was accomplished by first adding 10 μL of 5× AlphaLISA lysis buffer (Perkin Elmer, ALSU-PSLP-A500) to each well of the cell plate using a Multidrop Combi (5840300), followed by 20 minutes shaking. 10 μL cell lysate from each treatment were then transferred to a white 384-well plate (Corning 3572) and incubated with AlphaLISA acceptor beads for one hour (AlphaLISA SureFire Ultra p-SLP76 (Ser376), Perkin Elmer, ALSU-PSLP-A500), and donor beads for additional 2 hours at room temperature in the dark. […]

[1] = molecular target: full-length human HPK1 (MAP4K1) (Homo sapiens (Human), UniProt Q92918); assay: HPK1 kinase assay (biochemical, ADP-Glo); conditions: read-out: HPK1 enzymatic IC50
Sequence of full-length human HPK1 (MAP4K1) (Q92918 whole entry): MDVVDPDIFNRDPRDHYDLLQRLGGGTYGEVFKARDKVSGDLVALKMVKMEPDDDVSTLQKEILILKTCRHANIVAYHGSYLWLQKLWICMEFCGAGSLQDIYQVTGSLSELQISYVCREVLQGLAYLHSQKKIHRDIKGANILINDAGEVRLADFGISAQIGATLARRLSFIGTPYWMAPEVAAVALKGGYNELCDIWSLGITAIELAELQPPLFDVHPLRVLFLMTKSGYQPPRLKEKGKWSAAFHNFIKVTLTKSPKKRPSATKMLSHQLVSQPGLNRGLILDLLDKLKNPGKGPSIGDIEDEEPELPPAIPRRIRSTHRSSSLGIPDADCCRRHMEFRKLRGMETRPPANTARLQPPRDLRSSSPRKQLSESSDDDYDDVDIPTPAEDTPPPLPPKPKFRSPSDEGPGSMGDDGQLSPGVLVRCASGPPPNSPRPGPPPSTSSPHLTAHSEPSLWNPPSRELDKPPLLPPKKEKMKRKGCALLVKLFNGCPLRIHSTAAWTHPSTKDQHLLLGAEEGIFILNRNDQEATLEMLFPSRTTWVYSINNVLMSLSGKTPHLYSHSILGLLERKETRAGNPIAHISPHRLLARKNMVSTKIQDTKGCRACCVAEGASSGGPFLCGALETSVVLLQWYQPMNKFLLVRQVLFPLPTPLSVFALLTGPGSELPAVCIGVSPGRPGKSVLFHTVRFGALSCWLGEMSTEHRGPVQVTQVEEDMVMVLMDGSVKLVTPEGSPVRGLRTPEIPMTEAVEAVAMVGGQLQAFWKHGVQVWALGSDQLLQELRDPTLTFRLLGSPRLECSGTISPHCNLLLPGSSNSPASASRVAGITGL
Description: HPK1 kinase assay (Biochemical assay).
A recombinant fusion protein consisting of full-length human HPK1 (MAP4K1) with an N-terminal Glutatione S-transferase (GST) tag was produced in insect cells Sf21 using the baculovirus expression system. GST-HPK1 protein was purified from cell lysates by glutathione Sepharose affinity chromatography. The assay is run in three continuous steps: 1) the HPK1 enzymatic kinase reaction, 2) an ATP depletion, and 3) the ADP detection, the steps 2 and 3 are performed with ADP-Glo™ Kinase Assay kit from Promega (V9101). Test compounds were prepared by 10-point serial dilution in dimethyl sulfoxide (DMSO) and 100 nL of each dilution was spotted onto a 384-well Optiplate (Perkin Elmer and Cat #6007299) by Labcyte Echo. 5 μL kinase reaction buffer (0.02% Brij-35, 2 mM DTT, 50 mM HEPES pH 7.5, MgCl2 10 mM, BSA 0.01% and β-glycerophosphate 12.5 mM) containing HPK1 (3.2 nM) enzyme was transferred to each well and incubated for 15 minutes at room temperature at 60% humidity. The enzymatic reaction was started by adding 5 μl of Start-Mix (10 μM ATP and 3.235 μM MBP). After 120 minutes, the reaction was stopped by adding 5 μL of ADP-Glo reagent (Promega, V9101) and incubating for 40 min. in the dark at 23° C. To determine the level of ADP, 10 μl ADP-Glo Detection solution was added and incubated for 1 hour at 23° C. in the dark. The plate was transferred to a Perkin Elmer EnVision (2104 Multilabel Reader) for luminescence detection and percent inhibition activity and IC50 value were determined using Genedata Screener.

[2] = SLP76 Ser376 phosphorylation after αCD3/αCD28 stimulation, Jurkat (human) or EL-4 (mouse) cells, table does not say which
[3] = GST-HPK1 3.2 nM, 10 μM ATP, MBP substrate, ADP-Glo

Which IC50 (HPK1 pSLP76 (Ser376); [2]) does the source give for `COCCOc1ccc(-c2cc(C(N)=O)c3ncnc(N[C@H]4CCCNC4)c3n2)cn1` [Example 55, (S)-6-(6-(2-methoxyethoxy)pyridin-3-yl)-4-(piperidin-3-ylamino)pyrido[3,2-d]pyrimidine-8-carboxamide] here?
Its IC50 is over 1 µM.

What about the IC50 [1, 3] of the same molecule?
Its IC50 is under 0.1 µM.

Which IC50 (HPK1 pSLP76 (Ser376); [2]) does the source give for `NC(=O)c1cc(-c2cc(F)c(OCC3(O)CCOCC3)c(F)c2)nc2c(N[C@H]3CCCNC3)ncnc12` [Example 43, (S)-6-(3,5-difluoro-4-((4-hydroxytetrahydro-2H-pyran-4-yl)methoxy)phenyl)-4-(piperidin-3-ylamino)pyrido[3,2-d]pyrimidine-8-carboxamide] here?
The IC50 was under 0.5 µM.

And the IC50 [1, 3]?
Its IC50 is under 0.1 µM.

`C[C@@H]1COC[C@H](C)N1Cc1ccc(-c2cc(C(N)=O)c3ncnc(N[C@@H]4CNCCC4(F)F)c3n2)cc1` [Example 29, 4-[[(3R)-4,4-difluoropiperidin-3-yl]amino]-6-(4-[[(3R,5S)-3,5-dimethylmorpholin-4-yl]methyl]phenyl)pyrido[3,2-d]pyrimidine-8-carboxamide] was tested. Which IC50 (HPK1 pSLP76 (Ser376); [2]) did it give?
Its IC50 is over 1 µM.

What about the IC50 [1, 3] of the same molecule?
Its IC50 is under 0.1 µM.

What does the source list for `CC1(F)CN(Cc2ccc(-c3cc(C(N)=O)c4ncnc(N[C@H]5CCCNC5)c4n3)cc2)C1` [Example 56, (S)-6-(4-((3-fluoro-3-methylazetidin-1-yl)methyl)phenyl)-4-(piperidin-3-ylamino)pyrido[3,2-d]pyrimidine-8-carboxamide]?
IC50 (HPK1 pSLP76 (Ser376); [2]): < 0.5 µM; IC50 [1, 3]: < 0.1 µM

Which results are given for `NC(=O)c1cc(C2=CCN(C(=O)C3CC3)CC2)nc2c(N[C@H]3CCCNC3)ncnc12` [Example 75, 6-(1-cyclopropanecarbonyl-1,2,3,6-tetrahydropyridin-4-yl)-4-{[(3S)-piperidin-3-yl]amino}pyrido[3,2-d]pyrimidine-8-carboxamide]?
IC50 (HPK1 pSLP76 (Ser376); [2]): 0.5 to 1 µM; IC50 [1, 3]: < 0.1 µM

`NC(=O)c1cc(-c2ccc(CC3(F)CCOCC3)cc2)nc2c(N[C@H]3CCCNC3)ncnc12` [Example 44, (S)-6-(4-((4-fluorotetrahydro-2H-pyran-4-yl)methyl)phenyl)-4-(piperidin-3-ylamino)pyrido[3,2-d]pyrimidine-8-carboxamide] was tested. Which IC50 (HPK1 pSLP76 (Ser376); [2]) did it give?
The IC50 was under 0.5 µM.

What about the IC50 [1, 3] of the same molecule?
Its IC50 is under 0.1 µM.

For `NC(=O)c1cc(-c2ccc(CN3CC4CCC(C3)O4)cc2)nc2c(N[C@H]3CCCNC3)ncnc12` [Example 65, 6-(4-[8-oxa-3-azabicyclo [3.2.1]octan-3-ylmethyl]phenyl)-4-[(3S)-piperidin-3-ylamino]pyrido[3,2-d]pyrimidine-8-carboxamide], which IC50 (HPK1 pSLP76 (Ser376); [2]) is on record?
The IC50 was under 0.5 µM.

And the IC50 [1, 3]?
Its IC50 is under 0.1 µM.

Which IC50 (HPK1 pSLP76 (Ser376); [2]) does the source give for `NC(=O)c1cc(-c2ccc(N3CCC(O)C3)nc2)nc2c(N[C@@H]3CNC[C@@H](F)C3)ncnc12` (stereo partly drawn) [Example 32, 4-(((3S,5S)-5-fluoropiperidin-3-yl)amino)-6-(6-(3-hydroxypyrrolidin-1-yl)pyridin-3-yl)pyrido[3,2-d]pyrimidine-8-carboxamide] here?
Its IC50 is over 1 µM.

And the IC50 [1, 3]?
Its IC50 is under 0.1 µM.

For `NC(=O)c1cc(-c2ccc(O[C@H]3CN4CCC3CC4)cc2)nc2c(N[C@H]3CCCNC3)ncnc12` [Example 50, 4-(((S)-piperidin-3-yl)amino)-6-(4-(((R)-quinuclidin-3-yl)oxy)phenyl)pyrido[3,2-d]pyrimidine-8-carboxamide], which IC50 (HPK1 pSLP76 (Ser376); Homo sapiens, Jurkat) is on record?
The IC50 was over 1 µM.

What about the IC50 [1] of the same molecule?
Its IC50 is under 0.1 µM.

Which results are given for `NC(=O)c1cc(-c2ccc(C3(O)CC3)cc2)nc2c(N[C@H]3CCCNC3)ncnc12` [Example 58, 6-[4-(1-hydroxycyclopropyl)phenyl]-4-[(3S)-piperidin-3-ylamino]pyrido[3,2-d]pyrimidine-8-carboxamide]?
IC50 (HPK1 pSLP76 (Ser376); [2]): < 0.5 µM; IC50 [1, 3]: < 0.1 µM

`C[C@@H](O)COc1ccc(-c2cc(C(N)=O)c3ncnc(N[C@H]4CCCNC4)c3n2)cc1` [Example 51, 6-(4-((R)-2-hydroxypropoxy)phenyl)-4-(((S)-piperidin-3-yl)amino)pyrido[3,2-d]pyrimidine-8-carboxamide] was tested. Which IC50 (HPK1 pSLP76 (Ser376); Homo sapiens, Jurkat) did it give?
The IC50 was under 0.5 µM.

What about the IC50 [1] of the same molecule?
The IC50 was under 0.1 µM.

`Cc1nn(C)cc1-c1cc(C(N)=O)c2ncnc(N[C@H]3CCCNC3)c2n1` [Example 79, 6-(1,3-dimethyl-1H-pyrazol-4-yl)-4-{[(3S)-piperidin-3-yl]amino}pyrido[3,2-d]pyrimidine-8-carboxamide] was tested. Which IC50 (HPK1 pSLP76 (Ser376); [2]) did it give?
Its IC50 is over 1 µM.

And the IC50 [1, 3]?
The IC50 was under 0.1 µM.

Which results are given for `CCn1ncc(-c2cc(C(N)=O)c3ncnc(N[C@@H]4CNC[C@@H](F)C4)c3n2)c1C` [Example 8, 6-(1-ethyl-5-methyl-1H-pyrazol-4-yl)-4-(((3S,5S)-5-fluoropiperidin-3-yl)amino)pyrido[3,2-d]pyrimidine-8-carboxamide]?
IC50 (HPK1 pSLP76 (Ser376); [2]): < 0.5 µM; IC50 [1, 3]: < 0.1 µM

What does the source list for `COc1ccccc1-c1cc(C(N)=O)c2ncnc(N[C@H]3CCCNC3)c2n1` [Example 72, 6-(2-methoxyphenyl)-4-[(3S)-piperidin-3-ylamino]pyrido[3,2-d]pyrimidine-8-carboxamide]?
IC50 (HPK1 pSLP76 (Ser376); [2]): > 1 µM; IC50 [1, 3]: < 0.1 µM

Which IC50 (HPK1 pSLP76 (Ser376); [2]) does the source give for `NC(=O)c1cc(-c2cnn(C3CCOCC3)c2)nc2c(N[C@@H]3CNC[C@@H](F)C3)ncnc12` [Example 4, 4-(((3S,5S)-5-fluoropiperidin-3-yl)amino)-6-(1-(tetrahydro-2H-pyran-4-yl)-1H-pyrazol-4-yl)pyrido[3,2-d]pyrimidine-8-carboxamide] here?
Its IC50 is 0.5 to 1 µM.

What about the IC50 [1, 3] of the same molecule?
The IC50 was under 0.1 µM.

With `CN1CCN(c2ccc(-c3cc(C(N)=O)c4ncnc(N[C@H]5CCCNC5)c4n3)cn2)CC1` [Example 59, 6-[6-(4-methylpiperazin-1-yl)pyridin-3-yl]-4-[(3S)-piperidin-3-ylamino]pyrido[3,2-d]pyrimidine-8-carboxamide] as the molecule, how does the IC50 (HPK1 pSLP76 (Ser376); [2]) read?
The IC50 was under 0.5 µM.

And the IC50 [1, 3]?
The IC50 was under 0.1 µM.

Which IC50 (HPK1 pSLP76 (Ser376); [2]) does the source give for `NC(=O)c1cc(-c2ccc(C3(O)COC3)cc2)nc2c(N[C@H]3CCCNC3)ncnc12` [Example 82, 6-[4-(3-hydroxyoxetan-3-yl)phenyl]-4-{[(3S)-piperidin-3-yl]amino}pyrido[3,2-d]pyrimidine-8-carboxamide] here?
Its IC50 is 0.5 to 1 µM.

And the IC50 [1, 3]?
The IC50 was under 0.1 µM.

What does the source list for `CC1(N2CCOCC2)CC=C(c2cc(C(N)=O)c3ncnc(N[C@H]4CCCNC4)c3n2)CC1` (stereo partly drawn) [Example 74, 6-[4-methyl-4-(morpholin-4-yl)cyclohex-1-en-1-yl]-4-{[(3S)-piperidin-3-yl]amino}pyrido[3,2-d]pyrimidine-8-carboxamide]?
IC50 (HPK1 pSLP76 (Ser376); [2]): > 1 µM; IC50 [1, 3]: < 0.1 µM

Which results are given for `NC(=O)c1cc(C2=CCC(N3CCOCC3)CC2)nc2c(N[C@H]3CCCNC3)ncnc12` (stereo partly drawn) [Example 17, 6-(4-morpholinocyclohex-1-en-1-yl)-4-(((S)-piperidin-3-yl)amino)pyrido[3,2-d]pyrimidine-8-carboxamide]?
IC50 (HPK1 pSLP76 (Ser376); [2]): 0.5 to 1 µM; IC50 [1, 3]: < 0.1 µM

Which IC50 (HPK1 pSLP76 (Ser376); [2]) does the source give for `NC(=O)c1cc(-c2ccc(OCC3(O)CCCC3)cc2)nc2c(N[C@@H]3CNC[C@@H](F)C3)ncnc12` [Example 35, 4-(((3S,5S)-5-fluoropiperidin-3-yl)amino)-6-(4-((1-hydroxycyclopentyl)methoxy)phenyl)pyrido[3,2-d]pyrimidine-8-carboxamide] here?
Its IC50 is 0.5 to 1 µM.

And the IC50 [1, 3]?
Its IC50 is under 0.1 µM.

How did the IC50 (HPK1 pSLP76 (Ser376); [2]) turn out when `CS(=O)(=O)Cc1ccc(-c2cc(C(N)=O)c3ncnc(N[C@H]4CCCNC4)c3n2)cc1` [Example 54, (S)-6-(4-((methylsulfonyl)methyl)phenyl)-4-(piperidin-3-ylamino)pyrido[3,2-d]pyrimidine-8-carboxamide] was run?
Its IC50 is over 1 µM.

And the IC50 [1, 3]?
Its IC50 is under 0.1 µM.

How did the IC50 (HPK1 pSLP76 (Ser376); [2]) turn out when `C[C@@H](c1ccc(-c2cc(C(N)=O)c3ncnc(N[C@H]4CCCNC4)c3n2)cc1)N1CCOCC1` (single isomer, unassigned) [Example 53] was run?
Its IC50 is 0.5 to 1 µM.

What about the IC50 [1, 3] of the same molecule?
Its IC50 is under 0.1 µM.

How did the IC50 (HPK1 pSLP76 (Ser376); Homo sapiens, Jurkat) turn out when `NC(=O)c1cc(-c2ccc(OCC3(O)CC3)cc2)nc2c(N[C@@H]3CNC[C@@H](F)C3)ncnc12` [Example 34, 4-(((3S,5S)-5-fluoropiperidin-3-yl)amino)-6-(4-((1-hydroxycyclopropyl)methoxy)phenyl)pyrido[3,2-d]pyrimidine-8-carboxamide] was run?
The IC50 was under 0.5 µM.

And the IC50 [1]?
Its IC50 is under 0.1 µM.
